# Species on record: Rattus norvegicus
# Experiment: Open TG-GATES - Regimen: Daily Repeat
# Type: toxicity, organism-based, Sprague-Dawley
# Parameters: regimen Daily Repeat, gender Male, age 6 weeks
# Conditions: in vivo, po, 10 mg/kg, route gavage, dose level Low; for APTT / Bas / Eos / Fbg / Hb / Ht / Lym / MCH / MCHC / MCV / Mono / Neu / PT / Plat / RBC / Ret / WBC: tissue Blood; for KIDNEY_L / KIDNEY_R / KIDNEY_TOTAL: tissue Kidney; for LIVER: tissue Liver; for A/G / ALP / ALT / AST / BUN / CRE / Ca / Cl / DBIL / GLC / IP / K / LDH / Na / PL / RALB / TBIL / TC / TG / TP / gamma-GTP: tissue Plasma
structure (smiles),measurement,setting,value
CC1=C(/C=C/C(C)=C/C=C/C(C)=C/CO)C(C)(C)CCC1 [RETINOL],TERMINAL_BW,"72 h, time 3 day",230.9 g
same,APTT,"72 h, time 3 day",22.3 s
same,Bas,"72 h, time 3 day",0%
same,Eos,"72 h, time 3 day",0.8%
same,Fbg,"72 h, time 3 day",311.2 mg/dL
same,Hb,"72 h, time 3 day",13.4 g/dL
same,Ht,"72 h, time 3 day",38.9%
same,Lym,"72 h, time 3 day",80.8%
same,MCH,"72 h, time 3 day",21 pg
same,MCHC,"72 h, time 3 day",34.4%
same,MCV,"72 h, time 3 day",61.2 fL
same,Mono,"72 h, time 3 day",2.6%
same,Neu,"72 h, time 3 day",15.4%
same,PT,"72 h, time 3 day",16.8 s
same,Plat,"72 h, time 3 day",123.7 x10_4/uL
same,RBC,"72 h, time 3 day",636 x10_4/ul
same,Ret,"72 h, time 3 day",6.2%
same,WBC,"72 h, time 3 day",97.2 x10_2/uL
same,KIDNEY_L,"72 h, time 3 day",1 g
same,KIDNEY_R,"72 h, time 3 day",1 g
same,KIDNEY_TOTAL,"72 h, time 3 day",2 g
same,LIVER,"72 h, time 3 day",10.7 g
same,A/G,"72 h, time 3 day",1.3
same,ALP,"72 h, time 3 day",2143.6 IU/L
same,ALT,"72 h, time 3 day",51.6 IU/L
same,AST,"72 h, time 3 day",82 IU/L
same,BUN,"72 h, time 3 day",17 mg/dL
same,CRE,"72 h, time 3 day",0.1 mg/dL
same,Ca,"72 h, time 3 day",11 mg/dL
same,Cl,"72 h, time 3 day",107.8 meq/L
same,DBIL,"72 h, time 3 day",0 mg/dL
same,GLC,"72 h, time 3 day",191.4 mg/dL
same,IP,"72 h, time 3 day",6.5 mg/dL
same,K,"72 h, time 3 day",4.3 meq/L
same,LDH,"72 h, time 3 day",262.6 IU/L
same,Na,"72 h, time 3 day",142.2 meq/L
same,PL,"72 h, time 3 day",153.6 mg/dL
same,RALB,"72 h, time 3 day",3.2 g/dL
same,TBIL,"72 h, time 3 day",0.016 mg/dL
same,TC,"72 h, time 3 day",78.2 mg/dL
same,TG,"72 h, time 3 day",112.6 mg/dL
same,TP,"72 h, time 3 day",5.6 g/dL
same,gamma-GTP,"72 h, time 3 day",1 IU/L
same,TERMINAL_BW,"[…], time 7 day",257.9 g
same,TERMINAL_BW,"[…], time 14 day",293.8 g
same,TERMINAL_BW,"[…], time 28 day",358.5 g
same,APTT,"[…], time 7 day",23.3 s
same,Bas,"[…], time 7 day",0%
same,Eos,"[…], time 7 day",0.8%
same,Fbg,"[…], time 7 day",298.4 mg/dL
same,Hb,"[…], time 7 day",13.6 g/dL
same,Ht,"[…], time 7 day",39.2%
same,Lym,"[…], time 7 day",79.4%
same,MCH,"[…], time 7 day",21.2 pg
same,MCHC,"[…], time 7 day",34.8%
same,MCV,"[…], time 7 day",60.9 fL
same,Mono,"[…], time 7 day",2.4%
same,Neu,"[…], time 7 day",16.8%
same,PT,"[…], time 7 day",15.9 s
same,Plat,"[…], time 7 day",111.8 x10_4/uL
same,RBC,"[…], time 7 day",644 x10_4/ul
same,Ret,"[…], time 7 day",5.1%
same,WBC,"[…], time 7 day",94.2 x10_2/uL
same,APTT,"[…], time 14 day",23.8 s
same,Bas,"[…], time 14 day",0%
same,Eos,"[…], time 14 day",0.8%
same,Fbg,"[…], time 14 day",295.4 mg/dL
same,Hb,"[…], time 14 day",14.4 g/dL
same,Ht,"[…], time 14 day",40.6%
same,Lym,"[…], time 14 day",83.6%
same,MCH,"[…], time 14 day",20.6 pg
same,MCHC,"[…], time 14 day",35.4%
same,MCV,"[…], time 14 day",58.2 fL
same,Mono,"[…], time 14 day",1.8%
same,Neu,"[…], time 14 day",13.2%
same,PT,"[…], time 14 day",16.2 s
same,Plat,"[…], time 14 day",107.1 x10_4/uL
same,RBC,"[…], time 14 day",698 x10_4/ul
same,Ret,"[…], time 14 day",3.9%
same,WBC,"[…], time 14 day",114.6 x10_2/uL
same,APTT,"[…], time 28 day",26.8 s
same,Bas,"[…], time 28 day",0%
same,Eos,"[…], time 28 day",1%
same,Fbg,"[…], time 28 day",330 mg/dL
same,Hb,"[…], time 28 day",14.9 g/dL
same,Ht,"[…], time 28 day",41.2%
same,Lym,"[…], time 28 day",82.8%
same,MCH,"[…], time 28 day",19.8 pg
same,MCHC,"[…], time 28 day",36.2%
same,MCV,"[…], time 28 day",54.6 fL
same,Mono,"[…], time 28 day",1.6%
same,Neu,"[…], time 28 day",14.6%
same,PT,"[…], time 28 day",15.8 s
same,Plat,"[…], time 28 day",102.3 x10_4/uL
same,RBC,"[…], time 28 day",756 x10_4/ul
same,Ret,"[…], time 28 day",2.4%
same,WBC,"[…], time 28 day",86 x10_2/uL
same,KIDNEY_L,"[…], time 7 day",1.1 g
same,KIDNEY_R,"[…], time 7 day",1.1 g
same,KIDNEY_TOTAL,"[…], time 7 day",2.2 g
same,KIDNEY_L,"[…], time 14 day",1.1 g
same,KIDNEY_R,"[…], time 14 day",1.2 g
same,KIDNEY_TOTAL,"[…], time 14 day",2.3 g
same,KIDNEY_L,"[…], time 28 day",1.3 g
same,KIDNEY_R,"[…], time 28 day",1.3 g
same,KIDNEY_TOTAL,"[…], time 28 day",2.6 g
same,LIVER,"[…], time 7 day",12.5 g
same,LIVER,"[…], time 14 day",12.9 g
same,LIVER,"[…], time 28 day",14.9 g
same,A/G,"[…], time 7 day",1.3
same,ALP,"[…], time 7 day",1621.4 IU/L
same,ALT,"[…], time 7 day",41.6 IU/L
same,AST,"[…], time 7 day",68.2 IU/L
same,BUN,"[…], time 7 day",17.2 mg/dL
same,CRE,"[…], time 7 day",0.2 mg/dL
same,Ca,"[…], time 7 day",10.7 mg/dL
same,Cl,"[…], time 7 day",107.2 meq/L
same,DBIL,"[…], time 7 day",0 mg/dL
same,GLC,"[…], time 7 day",193.2 mg/dL
same,IP,"[…], time 7 day",6.2 mg/dL
same,K,"[…], time 7 day",4.1 meq/L
same,LDH,"[…], time 7 day",216 IU/L
same,Na,"[…], time 7 day",142.4 meq/L
same,PL,"[…], time 7 day",157.4 mg/dL
same,RALB,"[…], time 7 day",3.2 g/dL
same,TBIL,"[…], time 7 day",0.006 mg/dL
same,TC,"[…], time 7 day",76.4 mg/dL
same,TG,"[…], time 7 day",160.4 mg/dL
same,TP,"[…], time 7 day",5.7 g/dL
same,gamma-GTP,"[…], time 7 day",1.4 IU/L
same,A/G,"[…], time 14 day",1.2
same,ALP,"[…], time 14 day",1426.6 IU/L
same,ALT,"[…], time 14 day",42.8 IU/L
same,AST,"[…], time 14 day",70.6 IU/L
same,BUN,"[…], time 14 day",17.6 mg/dL
same,CRE,"[…], time 14 day",0.2 mg/dL
same,Ca,"[…], time 14 day",10.6 mg/dL
same,Cl,"[…], time 14 day",108.4 meq/L
same,DBIL,"[…], time 14 day",0 mg/dL
same,GLC,"[…], time 14 day",195 mg/dL
same,IP,"[…], time 14 day",5.7 mg/dL
same,K,"[…], time 14 day",4 meq/L
same,LDH,"[…], time 14 day",181.2 IU/L
same,Na,"[…], time 14 day",143.2 meq/L
same,PL,"[…], time 14 day",150 mg/dL
same,RALB,"[…], time 14 day",3.1 g/dL
same,TBIL,"[…], time 14 day",0.004 mg/dL
same,TC,"[…], time 14 day",70.2 mg/dL
same,TG,"[…], time 14 day",156.8 mg/dL
same,TP,"[…], time 14 day",5.7 g/dL
same,gamma-GTP,"[…], time 14 day",0.8 IU/L
same,A/G,"[…], time 28 day",1.2
same,ALP,"[…], time 28 day",1127 IU/L
same,ALT,"[…], time 28 day",46.2 IU/L
same,AST,"[…], time 28 day",69.4 IU/L
same,BUN,"[…], time 28 day",15.2 mg/dL
same,CRE,"[…], time 28 day",0.2 mg/dL
same,Ca,"[…], time 28 day",10.4 mg/dL
same,Cl,"[…], time 28 day",108.4 meq/L
same,DBIL,"[…], time 28 day",0 mg/dL
same,GLC,"[…], time 28 day",182.8 mg/dL
same,IP,"[…], time 28 day",5.8 mg/dL
same,K,"[…], time 28 day",4.1 meq/L
same,LDH,"[…], time 28 day",167.2 IU/L
same,Na,"[…], time 28 day",142 meq/L
same,PL,"[…], time 28 day",140.2 mg/dL
same,RALB,"[…], time 28 day",3.2 g/dL
same,TBIL,"[…], time 28 day",0.016 mg/dL
same,TC,"[…], time 28 day",67.8 mg/dL
same,TG,"[…], time 28 day",168.2 mg/dL
same,TP,"[…], time 28 day",6 g/dL
same,gamma-GTP,"[…], time 28 day",1.4 IU/L
